Source: patent publication US6403343B2, “Method of producing a taxane-type diterpene and a method of obtaining cultured cells which produce the taxane-type dilterpene at a high rate” (Mitsui Chemicals, Inc., priority 1993, dated 2002)
Read-outs that look alike come from different tables or passages of the source.

Experiments:
[1] = tested on: cultured cells of Taxus baccata LINN; test: Growth rate and taxane yield, 21-day shake culture of Taxus baccata cells with heavy metal compound, amine, antiethylene agent or Ethrel added; type: cell-based
[2] = tested on: cultured cells of Taxus baccata LINN; details: 3 mM in fresh medium, continuous culture
Procedure: The amount of the taxol contained in the cells and the medium were measured in the same manner as that used in Example 1.

[3] = tested on: cultured cells of Taxus baccata LINN; details: 2 mM in medium
Procedure: The procedure of Example 78 was carried out except that the nutrition source was not added midway.

[4] = tested on: cultured cells of Taxus baccata LINN; test: Taxane-type diterpenes in the culture medium after adding 100 μM methyl jasmonate (FIG. 1, FIG. 2); type: cell-based; details: 7th day after the addition
Procedure: The analytical results of taxane-type diterpenes existed in the culture medium of Example 15 prior to the addition of 100 μM of methyl jasmonate, on the third day after the addition, and on the 7th day after the addition, are shown in FIG. 1 and FIG. 2 On the 7th day of the culture, about half of the taxol and about 70% of the baccatin III were leaked in the medium.
The procedure of Example 20 was carried out except that the methyl ester of jasmonic acid was not added.

[5] = tested on: cultured cells of Taxus baccata LINN, layer of 1.07 g/ml or less; test: Same culture using cells of the specific gravity layer of 1.07 g/ml or less (Ficoll), jasmonic acids added; type: cell-based; details: 250 μM added on 14th day, 7 more days; cells of layer of 1.07 g/ml or less
Procedure: (§1) The cells with accelerated growth rate obtained by the method of Example 1 were fractionated firstly by a stainless steel mesh and cell clusters having the size of 250-840 μm were obtained. A medium having a specific gravity of 1.07 (g/ml) was produced by the use of Ficoll and the above-mentioned cells were layered over it and centrifuged at 700 rpm for 6 minutes. The cells were fractionated into two layers according to the difference of the specific gravity. The cells contained in the layer of 1.07 g/ml or less were fractionated and washed with 2% sucrose solution three times or more, to wash off Ficoll. After the washing, 1 g (fresh weight) of the cells was transferred to an Erlenmeyer flask containing 20 ml of liquid Woody Plant Medium and shake culture was carried out at 25° C. for 14 days. […] After completing the culture, the procedure of Example 1 was carried out.
as §1, with “growth rates” for “growth rate”, “Example 8” for “Example 1”, “was inoculated” for “was transferred”
as §1, with “Example 15” for “Example 1”, “was inoculated” for “was transferred”

[6] = tested on: cultured cells of Taxus baccata LINN; test: Taxane-type diterpene yield and cell yield, shake culture of Taxus baccata cells with a jasmonic acid (or jasmone) added; type: cell-based
[7] = 2×10^−4 M added 5 times at 4 days' intervals from day 0, total 10^−3 M
[8] = 10^−1 M added at start, 21 days
[9] = 10^−2 M added at start, 21 days
[10] = 10^−3 M added at start, 21 days
[11] = 10^−3 M added on 7th day, 14 more days
[12] = 10^−3 M added on 14th day, 7 more days
[13] = 10^−3 M added on 18th day, 3 more days
[14] = 10^−3 M at start + methyl jasmonate 10^−4 M on 14th day
[15] = 10^−3 M at start + methyl jasmonate 10^−4 M on 14th day, oxygen 10% in the gas phase
[16] = 10^−3 M at start, oxygen 10% in the gas phase
[17] = 10^−4 M added at start, 21 days
[18] = 10^−5 M added at start, 21 days
[19] = 10^−6 M added at start, 21 days
[20] = 10^−7 M added at start, 21 days
[21] = 10^−8 M added at start, 21 days
[22] = 10^−9 M added at start, 21 days
[23] = nutrition source added continuously day 2-14, 21 days
[24] = nutrition source not added midway, 21 days
[25] = 0.01 μM added on 14th day, 7 more days
[26] = 0.1 μM added on 14th day, 7 more days
[27] = 1 μM added on 14th day, 7 more days
[28] = 10 μM added on 14th day, 7 more days
[29] = 25 μM added 4 times every two days from 7th day, total 100 μM
[30] = 50 μM added on 14th day, 7 more days
[31] = 100 μM added on 7th day, 14 more days
[32] = 100 μM added on 14th day, 7 more days
[33] = 100 μM added on first day, 20 more days
[34] = 250 μM added on 14th day, 7 more days
[35] = 500 μM added on 14th day, 7 more days
[36] = 1000 μM added on 14th day, 7 more days

O=S([O-])([O-])=S.[Ag+].[Ag+] [silver thiosulfate, [Ag(S2O3)2]^3−]
growth rate ([1]; 1 M added at start, 21 days): 1.2 times
total yield of taxane ([1]; 1 M added at start, 21 days): 0.64 mg/L
yield of baccatin III ([1]; 1 M added at start, 21 days): 0.08 mg/L
yield of cephalomannine ([1]; 1 M added at start, 21 days): 0.36 mg/L
yield of taxol ([1]; 1 M added at start, 21 days): 0.20 mg/L
growth rate [1, 7]: 2.4 times
total yield of taxane [1, 7]: 32.36 mg/L
yield of baccatin III [1, 7]: 4.15 mg/L
yield of cephalomannine [1, 7]: 7.27 mg/L
yield of taxol [1, 7]: 20.94 mg/L
growth rate [1, 8]: 1.9 times
total yield of taxane [1, 8]: 3.78 mg/L
yield of baccatin III [1, 8]: 0.26 mg/L
yield of cephalomannine [1, 8]: 2.15 mg/L
yield of taxol [1, 8]: 1.37 mg/L
growth rate [1, 9]: 2.3 times
total yield of taxane [1, 9]: 12.02 mg/L
yield of baccatin III [1, 9]: 0.72 mg/L
yield of cephalomannine [1, 9]: 5.50 mg/L
yield of taxol [1, 9]: 5.80 mg/L
growth rate [1, 10]: 2.7 times
total yield of taxane [1, 10]: 58.99 mg/L
yield of baccatin III [1, 10]: 27.90 mg/L
yield of cephalomannine [1, 10]: 5.96 mg/L
yield of taxol [1, 10]: 25.13 mg/L
growth rate [1, 11]: 2.2 times
total yield of taxane [1, 11]: 27.21 mg/L
yield of baccatin III [1, 11]: 11.71 mg/L
yield of cephalomannine [1, 11]: 4.86 mg/L
yield of taxol [1, 11]: 10.64 mg/L
growth rate [1, 12]: 2.5 times
total yield of taxane [1, 12]: 10.59 mg/L
yield of baccatin III [1, 12]: 2.29 mg/L
yield of cephalomannine [1, 12]: 3.83 mg/L
yield of taxol [1, 12]: 4.47 mg/L
growth rate [1, 13]: 2.9 times
total yield of taxane [1, 13]: 3.27 mg/L
yield of baccatin III [1, 13]: 0.28 mg/L
yield of cephalomannine [1, 13]: 1.44 mg/L
yield of taxol [1, 13]: 1.55 mg/L
growth rate [1, 14]: 2.7 times
total yield of taxane [1, 14]: 71.32 mg/L
yield of baccatin III [1, 14]: 25.14 mg/L
yield of cephalomannine [1, 14]: 12.57 mg/L
yield of taxol [1, 14]: 33.61 mg/L
growth rate [1, 15]: 2.7 times
total yield of taxane [1, 15]: 74.07 mg/L
yield of baccatin III [1, 15]: 27.00 mg/L
yield of cephalomannine [1, 15]: 12.34 mg/L
yield of taxol [1, 15]: 34.73 mg/L
growth rate [1, 16]: 2.7 times
total yield of taxane [1, 16]: 59.34 mg/L
yield of baccatin III [1, 16]: 22.81 mg/L
yield of cephalomannine [1, 16]: 9.08 mg/L
yield of taxol [1, 16]: 27.45 mg/L
growth rate [1, 17]: 2.7 times
total yield of taxane [1, 17]: 27.26 mg/L
yield of baccatin III [1, 17]: 7.62 mg/L
yield of cephalomannine [1, 17]: 5.11 mg/L
yield of taxol [1, 17]: 14.53 mg/L
growth rate [1, 18]: 2.7 times
total yield of taxane [1, 18]: 13.18 mg/L
yield of baccatin III [1, 18]: 1.13 mg/L
yield of cephalomannine [1, 18]: 4.10 mg/L
yield of taxol [1, 18]: 7.95 mg/L
growth rate [1, 19]: 2.6 times
total yield of taxane [1, 19]: 5.72 mg/L
yield of baccatin III [1, 19]: 1.06 mg/L
yield of cephalomannine [1, 19]: 2.86 mg/L
yield of taxol [1, 19]: 1.80 mg/L
growth rate [1, 20]: 2.7 times
total yield of taxane [1, 20]: 4.38 mg/L
yield of baccatin III [1, 20]: 0.34 mg/L
yield of cephalomannine [1, 20]: 2.47 mg/L
yield of taxol [1, 20]: 1.57 mg/L
growth rate [1, 21]: 2.8 times
total yield of taxane [1, 21]: 2.02 mg/L
yield of baccatin III [1, 21]: 0.29 mg/L
yield of cephalomannine [1, 21]: 0.97 mg/L
yield of taxol [1, 21]: 0.76 mg/L
growth rate [1, 22]: 2.7 times
total yield of taxane [1, 22]: 1.09 mg/L
yield of baccatin III [1, 22]: 0.20 mg/L
yield of cephalomannine [1, 22]: 0.56 mg/L
yield of taxol [1, 22]: 0.33 mg/L
productivity of taxol ([2]; stationary state): 8.8 mg/L/day
taxol produced ([2]; stationary state of 60 days): 525 mg
yield of cells [3, 23]: 38 g dried weight/l
yield of taxol from cells [3, 23]: 31 mg/L
yield of taxol from medium [3, 23]: 89 mg/L
yield of taxol total [3, 23]: 125 mg/L
yield of cells [3, 24]: 22 g dried weight/l
yield of taxol from cells [3, 24]: 33 mg/L
yield of taxol from medium [3, 24]: 27 mg/L
yield of taxol total [3, 24]: 60 mg/L

CC/C=C\CC1C(=O)CCC1CC(=O)OC (centres unmarked) [methyl jasmonate]
baccatin III leaked in the medium [4]: about 70%
taxol leaked in the medium [4]: about half
cell yield [5]: 10.2 g/L
yield of baccatin III [5]: 18.7 mg/L
yield of cephalomannine [5]: 3.2 mg/L
yield of taxol [5]: 43.1 mg/L
cell yield [6, 25]: 12.2 g/L
yield of baccatin III [6, 25]: 0.3 mg/L
yield of cephalomannine [6, 25]: 1.6 mg/L
yield of taxol [6, 25]: 3.2 mg/L
cell yield [6, 26]: 12.1 g/L
yield of baccatin III [6, 26]: 0.3 mg/L
yield of cephalomannine [6, 26]: 1.6 mg/L
yield of taxol [6, 26]: 4.2 mg/L
cell yield [6, 27]: 11.3 g/L
yield of baccatin III [6, 27]: 0.4 mg/L
yield of cephalomannine [6, 27]: 1.8 mg/L
yield of taxol [6, 27]: 4.9 mg/L
cell yield [6, 28]: 11.3 g/L
yield of baccatin III [6, 28]: 0.7 mg/L
yield of cephalomannine [6, 28]: 2.1 mg/L
yield of taxol [6, 28]: 10.8 mg/L
cell yield [6, 29]: 10.7 g/L
yield of baccatin III [6, 29]: 14.9 mg/L
yield of cephalomannine [6, 29]: 2.2 mg/L
yield of taxol [6, 29]: 16.7 mg/L
cell yield [6, 30]: 10.9 g/L
yield of baccatin III [6, 30]: 3.1 mg/L
yield of cephalomannine [6, 30]: 2.2 mg/L
yield of taxol [6, 30]: 10.9 mg/L
cell yield [6, 31]: 9.7 g/L
yield of baccatin III [6, 31]: 10.6 mg/L
yield of cephalomannine [6, 31]: 2.1 mg/L
yield of taxol [6, 31]: 14.2 mg/L
cell yield [6, 32]: 9.8 g/L
yield of baccatin III [6, 32]: 9.2 mg/L
yield of cephalomannine [6, 32]: 2.0 mg/L
yield of taxol [6, 32]: 13.5 mg/L
cell yield [6, 33]: 7.2 g/L
yield of baccatin III [6, 33]: 1.2 mg/L
yield of cephalomannine [6, 33]: 1.7 mg/L
yield of taxol [6, 33]: 4.5 mg/L
cell yield [6, 34]: 10.0 g/L
yield of baccatin III [6, 34]: 12.9 mg/L
yield of cephalomannine [6, 34]: 2.0 mg/L
yield of taxol [6, 34]: 15.1 mg/L
cell yield [6, 35]: 10.6 g/L
yield of baccatin III [6, 35]: 13.0 mg/L
yield of cephalomannine [6, 35]: 1.9 mg/L
yield of taxol [6, 35]: 12.6 mg/L
cell yield [6, 36]: 5.9 g/L
yield of baccatin III [6, 36]: 1.2 mg/L
yield of cephalomannine [6, 36]: 1.8 mg/L
yield of taxol [6, 36]: 3.1 mg/L
